{
  "source": "paper PMC3100226",
  "about": "(Journal of Pain Research, 2011)",
  "key": {"Sigma (σ1 + σ2)": {"system": "Sigma (σ1 + σ2)", "experiment": "Receptor characterization panel: sigma binding", "conditions": "[3H]DTG, whole brain/rat"}, "conscious dog": {"system": "conscious dog", "experiment": "Safety pharmacology, cardiovascular, conscious dog", "format": "in vivo", "conditions": "supra-pharmacological doses"}, "MAO-B": {"molecular_target": "T1, MAO-B (Rattus norvegicus, UniProt P19643)", "T1 sequence (P19643 1-520)": "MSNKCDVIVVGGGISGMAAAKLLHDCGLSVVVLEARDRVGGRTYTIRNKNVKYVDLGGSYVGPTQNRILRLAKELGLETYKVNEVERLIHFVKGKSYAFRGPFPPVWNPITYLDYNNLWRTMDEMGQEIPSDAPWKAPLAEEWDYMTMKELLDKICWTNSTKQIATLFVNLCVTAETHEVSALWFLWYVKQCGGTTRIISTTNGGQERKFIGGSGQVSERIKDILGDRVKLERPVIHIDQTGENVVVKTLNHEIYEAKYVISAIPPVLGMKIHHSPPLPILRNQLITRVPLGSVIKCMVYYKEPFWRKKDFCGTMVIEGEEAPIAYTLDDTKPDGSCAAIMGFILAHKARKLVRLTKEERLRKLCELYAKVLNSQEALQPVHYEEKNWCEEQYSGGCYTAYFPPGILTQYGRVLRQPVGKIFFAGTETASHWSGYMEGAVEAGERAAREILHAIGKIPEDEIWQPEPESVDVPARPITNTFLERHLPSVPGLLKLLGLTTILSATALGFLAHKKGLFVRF", "experiment": "MAO-B binding"}, "I1": {"molecular_target": "I1 (Bos taurus, UniProt F1N322)", "experiment": "Receptor characterization panel: I1 binding", "set-up": "species or system bovine", "conditions": "read-out: 10 μM CR4056 (% effect), inhibition of specific binding"}, "PI 3-Kδ": {"molecular_target": "PI 3-Kδ (Homo sapiens, UniProt O00329)", "experiment": "Enzyme characterization panel: PI 3-Kδ", "format": "biochemical", "conditions": "data not shown"}, "MAO-A": {"molecular_target": "T2, MAO-A (Rattus norvegicus, UniProt P21396)", "T2 sequence (P21396 1-526)": "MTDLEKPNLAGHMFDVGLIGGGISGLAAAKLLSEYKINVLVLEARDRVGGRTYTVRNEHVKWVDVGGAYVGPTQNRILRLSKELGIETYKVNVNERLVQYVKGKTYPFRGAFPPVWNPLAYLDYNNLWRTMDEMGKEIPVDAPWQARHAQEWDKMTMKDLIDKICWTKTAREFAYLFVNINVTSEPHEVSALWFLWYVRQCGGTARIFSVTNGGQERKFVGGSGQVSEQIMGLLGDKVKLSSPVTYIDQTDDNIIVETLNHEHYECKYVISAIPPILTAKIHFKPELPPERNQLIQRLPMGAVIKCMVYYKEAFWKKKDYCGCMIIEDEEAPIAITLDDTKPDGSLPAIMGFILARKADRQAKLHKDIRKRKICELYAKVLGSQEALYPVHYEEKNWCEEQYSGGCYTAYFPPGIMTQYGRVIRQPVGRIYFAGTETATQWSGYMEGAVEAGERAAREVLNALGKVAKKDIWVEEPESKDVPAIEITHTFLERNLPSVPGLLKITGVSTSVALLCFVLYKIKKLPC", "experiment": "MAO-A binding"}, "[1]": {"system": "neuromuscular coordination of rats", "experiment": "Rotarod test", "format": "in vivo", "conditions": "rat; oral 3–30 mg/kg"}, "[2]": {"molecular_target": "Glycine (strychnine-sensitive) (Rattus norvegicus, UniProt P07727)", "sequence (P07727 29-457)": "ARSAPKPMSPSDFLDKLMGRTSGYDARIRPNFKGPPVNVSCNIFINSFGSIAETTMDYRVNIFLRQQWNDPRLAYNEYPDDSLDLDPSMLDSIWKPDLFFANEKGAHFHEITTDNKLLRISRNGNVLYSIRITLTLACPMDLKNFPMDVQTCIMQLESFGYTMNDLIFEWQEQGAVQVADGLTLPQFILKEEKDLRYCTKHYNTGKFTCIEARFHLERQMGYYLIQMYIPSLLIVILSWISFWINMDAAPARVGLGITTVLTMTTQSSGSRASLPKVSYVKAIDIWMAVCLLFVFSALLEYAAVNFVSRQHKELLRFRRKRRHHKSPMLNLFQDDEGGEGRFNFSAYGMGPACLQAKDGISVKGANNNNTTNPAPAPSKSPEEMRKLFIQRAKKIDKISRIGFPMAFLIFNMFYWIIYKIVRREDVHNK", "sequence (P20781 23-496 partner)": "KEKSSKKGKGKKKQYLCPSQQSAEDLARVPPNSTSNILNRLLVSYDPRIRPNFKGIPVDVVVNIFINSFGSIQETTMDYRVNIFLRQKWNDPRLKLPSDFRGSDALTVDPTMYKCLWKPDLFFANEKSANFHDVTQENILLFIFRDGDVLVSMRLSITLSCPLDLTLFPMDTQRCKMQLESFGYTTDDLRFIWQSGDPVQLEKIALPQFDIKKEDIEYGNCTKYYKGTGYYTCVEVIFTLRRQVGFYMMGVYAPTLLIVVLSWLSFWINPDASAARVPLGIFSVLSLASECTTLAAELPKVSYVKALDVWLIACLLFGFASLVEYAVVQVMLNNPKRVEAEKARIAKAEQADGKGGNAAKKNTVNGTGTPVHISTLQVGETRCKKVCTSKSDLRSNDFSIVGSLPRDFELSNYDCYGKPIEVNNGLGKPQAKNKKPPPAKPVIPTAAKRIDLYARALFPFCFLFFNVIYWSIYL", "experiment": "Receptor characterization panel: glycine receptor binding", "conditions": "read-out: 10 μM CR4056 (% effect), inhibition of specific binding"}, "BDZ (central)": {"system": "BDZ (central)", "experiment": "Receptor characterization panel: central BDZ binding", "conditions": "10 μM; [3H]Flunitrazepam; cerebral cortex/rat"}, "D1": {"molecular_target": "D1 (Rattus norvegicus, UniProt P18901)", "sequence (P18901 whole entry)": "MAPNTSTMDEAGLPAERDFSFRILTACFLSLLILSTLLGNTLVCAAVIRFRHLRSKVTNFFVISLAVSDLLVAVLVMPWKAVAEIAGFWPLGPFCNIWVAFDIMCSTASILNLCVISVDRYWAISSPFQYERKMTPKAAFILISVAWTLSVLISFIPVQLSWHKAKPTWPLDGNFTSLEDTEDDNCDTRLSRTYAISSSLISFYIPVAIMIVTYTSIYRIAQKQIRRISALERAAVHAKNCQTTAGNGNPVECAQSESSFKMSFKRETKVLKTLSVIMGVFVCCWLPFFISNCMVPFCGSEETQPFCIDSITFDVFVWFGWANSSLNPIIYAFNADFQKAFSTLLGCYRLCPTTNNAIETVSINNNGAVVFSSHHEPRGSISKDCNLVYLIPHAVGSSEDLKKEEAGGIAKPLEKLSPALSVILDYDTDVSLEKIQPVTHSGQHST", "experiment": "Receptor characterization panel: D1 binding", "conditions": "read-out: 10 μM CR4056 (% effect), inhibition of specific binding"}, "conscious rat": {"system": "conscious rat", "experiment": "Safety pharmacology, respiratory, conscious rat", "format": "in vivo", "conditions": "supra-pharmacological doses"}, "[3]": {"system": "endogenous norepinephrine (NE) levels", "experiment": "In vivo quantification of endogenous norepinephrine tissue levels", "conditions": "rat"}, "human mTOR kinase": {"molecular_target": "human mTOR kinase (Homo sapiens, UniProt P42345)", "experiment": "Enzyme characterization panel: mTOR kinase", "format": "biochemical", "conditions": "data not shown"}, "[4]": {"molecular_target": "catechol-O-methyl transferase (COMT) (Homo sapiens, UniProt P21964)", "sequence (P21964 whole entry, species assumed)": "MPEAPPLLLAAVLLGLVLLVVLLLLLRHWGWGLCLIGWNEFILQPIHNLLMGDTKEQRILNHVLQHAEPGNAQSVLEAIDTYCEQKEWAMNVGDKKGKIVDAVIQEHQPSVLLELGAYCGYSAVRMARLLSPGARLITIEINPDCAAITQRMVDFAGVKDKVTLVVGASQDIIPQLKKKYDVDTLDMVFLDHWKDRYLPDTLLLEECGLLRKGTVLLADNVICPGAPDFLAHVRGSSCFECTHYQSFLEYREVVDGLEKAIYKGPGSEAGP", "experiment": "Enzyme characterization panel: COMT", "format": "biochemical", "conditions": "data not shown"}, "I2": {"system": "I2", "experiment": "Receptor characterization panel: I2 binding", "conditions": "10 μM; [3H]Idazoxan (+1 μM yohimbine); cerebral cortex/rat"}, "[5]": {"molecular_target": "inducible NO synthase (iNOS) (Homo sapiens, UniProt P35228)", "sequence (P35228 whole entry, species assumed)": "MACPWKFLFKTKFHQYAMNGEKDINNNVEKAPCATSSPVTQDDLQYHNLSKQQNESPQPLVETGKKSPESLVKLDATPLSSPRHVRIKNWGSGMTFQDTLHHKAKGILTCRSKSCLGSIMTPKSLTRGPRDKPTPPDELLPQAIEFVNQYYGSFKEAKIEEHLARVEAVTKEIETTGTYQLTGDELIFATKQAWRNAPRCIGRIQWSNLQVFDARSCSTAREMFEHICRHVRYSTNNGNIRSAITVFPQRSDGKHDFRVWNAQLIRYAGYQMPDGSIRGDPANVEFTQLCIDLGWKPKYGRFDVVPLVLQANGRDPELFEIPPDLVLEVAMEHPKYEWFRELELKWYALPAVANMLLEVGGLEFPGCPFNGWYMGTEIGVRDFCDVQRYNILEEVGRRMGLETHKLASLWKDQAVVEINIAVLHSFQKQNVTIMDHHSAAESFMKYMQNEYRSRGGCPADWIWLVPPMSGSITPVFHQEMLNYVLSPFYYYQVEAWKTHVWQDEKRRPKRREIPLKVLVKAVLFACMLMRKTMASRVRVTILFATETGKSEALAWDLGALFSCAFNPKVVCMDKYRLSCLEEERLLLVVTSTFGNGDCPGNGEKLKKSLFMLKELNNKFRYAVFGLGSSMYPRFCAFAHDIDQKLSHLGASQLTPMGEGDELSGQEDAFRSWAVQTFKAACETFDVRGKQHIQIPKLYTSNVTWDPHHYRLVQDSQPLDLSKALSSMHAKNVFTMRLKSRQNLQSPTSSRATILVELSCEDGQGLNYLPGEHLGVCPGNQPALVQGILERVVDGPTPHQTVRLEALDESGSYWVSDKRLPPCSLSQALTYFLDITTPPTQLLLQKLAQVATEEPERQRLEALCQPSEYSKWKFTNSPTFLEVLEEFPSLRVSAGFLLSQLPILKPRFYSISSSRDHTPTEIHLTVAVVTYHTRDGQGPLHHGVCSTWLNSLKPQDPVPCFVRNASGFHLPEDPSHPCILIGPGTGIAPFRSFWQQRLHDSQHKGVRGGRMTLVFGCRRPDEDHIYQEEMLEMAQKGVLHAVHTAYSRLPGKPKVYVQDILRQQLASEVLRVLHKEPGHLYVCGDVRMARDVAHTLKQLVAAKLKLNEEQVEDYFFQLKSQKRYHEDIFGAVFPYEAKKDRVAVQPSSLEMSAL", "experiment": "Enzyme characterization panel: iNOS", "format": "biochemical", "conditions": "data not shown"}, "5-HT3": {"molecular_target": "5-HT3 (Rattus norvegicus, UniProt P35563)", "sequence (P35563 24-483)": "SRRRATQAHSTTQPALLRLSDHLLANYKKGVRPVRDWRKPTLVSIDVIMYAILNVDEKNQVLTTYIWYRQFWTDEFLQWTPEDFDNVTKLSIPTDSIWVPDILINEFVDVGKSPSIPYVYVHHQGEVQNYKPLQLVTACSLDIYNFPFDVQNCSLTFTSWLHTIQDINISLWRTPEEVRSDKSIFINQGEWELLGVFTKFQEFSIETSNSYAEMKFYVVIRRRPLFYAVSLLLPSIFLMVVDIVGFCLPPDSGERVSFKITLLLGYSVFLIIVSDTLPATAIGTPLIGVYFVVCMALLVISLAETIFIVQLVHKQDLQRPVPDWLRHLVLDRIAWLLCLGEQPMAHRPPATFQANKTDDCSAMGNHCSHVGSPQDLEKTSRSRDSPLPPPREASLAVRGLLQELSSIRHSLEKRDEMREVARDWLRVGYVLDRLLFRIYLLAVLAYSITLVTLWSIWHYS", "experiment": "Receptor characterization panel: 5-HT3 binding", "conditions": "read-out: 10 μM CR4056 (% effect), inhibition of specific binding"}, "cycooxygenase-2 (COX2)": {"molecular_target": "cycooxygenase-2 (COX2) (Homo sapiens, UniProt P35354)", "sequence (P35354 18-604)": "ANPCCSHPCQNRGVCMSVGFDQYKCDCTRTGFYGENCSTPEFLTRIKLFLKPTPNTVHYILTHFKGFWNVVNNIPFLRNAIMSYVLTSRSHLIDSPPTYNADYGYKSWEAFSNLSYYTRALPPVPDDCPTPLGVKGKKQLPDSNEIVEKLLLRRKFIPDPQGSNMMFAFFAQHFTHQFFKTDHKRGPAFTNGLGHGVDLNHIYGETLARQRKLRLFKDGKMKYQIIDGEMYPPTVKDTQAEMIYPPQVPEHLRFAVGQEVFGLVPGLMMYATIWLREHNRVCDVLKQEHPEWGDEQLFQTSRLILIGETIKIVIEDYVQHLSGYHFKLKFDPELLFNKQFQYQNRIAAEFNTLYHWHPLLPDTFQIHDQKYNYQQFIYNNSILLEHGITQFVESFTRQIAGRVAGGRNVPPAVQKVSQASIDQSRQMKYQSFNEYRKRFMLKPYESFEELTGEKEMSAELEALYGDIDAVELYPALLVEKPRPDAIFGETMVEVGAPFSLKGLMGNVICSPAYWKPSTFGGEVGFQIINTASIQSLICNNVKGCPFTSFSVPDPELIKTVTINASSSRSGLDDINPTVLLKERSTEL", "experiment": "Enzyme characterization panel: COX2", "format": "biochemical", "conditions": "data not shown"}, "PI 3-Kβ": {"molecular_target": "PI 3-Kβ (Homo sapiens, UniProt P42338)", "experiment": "Enzyme characterization panel: PI 3-Kβ", "format": "biochemical", "conditions": "data not shown"}, "human recombinant MAO-B": {"molecular_target": "T3, human recombinant MAO-B (Homo sapiens, UniProt P27338)", "T3 sequence (P27338 1-520)": "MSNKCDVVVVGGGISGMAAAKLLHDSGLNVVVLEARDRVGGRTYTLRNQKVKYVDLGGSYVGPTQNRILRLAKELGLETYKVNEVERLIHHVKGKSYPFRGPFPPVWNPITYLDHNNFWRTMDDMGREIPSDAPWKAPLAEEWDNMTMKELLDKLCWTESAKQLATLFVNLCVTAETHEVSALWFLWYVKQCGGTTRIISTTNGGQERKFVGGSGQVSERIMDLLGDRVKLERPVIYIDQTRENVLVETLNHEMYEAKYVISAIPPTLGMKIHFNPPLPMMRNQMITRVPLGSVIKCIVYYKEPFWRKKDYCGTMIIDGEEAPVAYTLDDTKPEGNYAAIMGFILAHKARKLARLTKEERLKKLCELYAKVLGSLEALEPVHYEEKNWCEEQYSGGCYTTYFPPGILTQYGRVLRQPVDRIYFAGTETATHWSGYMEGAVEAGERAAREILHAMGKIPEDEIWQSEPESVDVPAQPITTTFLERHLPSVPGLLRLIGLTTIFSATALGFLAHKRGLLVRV", "experiment": "Human recombinant MAO-B functional assay", "format": "biochemical"}, "[6]": {"conditions": "sub-chronic (four days) oral 20 mg/kg once daily, versus vehicle"}},
  "data": [
    {"smiles": "c1ccc(-c2ncc3cc(-n4ccnc4)ccc3n2)cc1", "note": "[CR4056, 2-phenyl-6-(1H-imidazol-1yl)quinazoline]", "values": [
      {"measurement": "10 μM CR4056 (% effect), inhibition of specific binding", "setting": "Sigma (σ1 + σ2)", "value": 18, "unit": "%"},
      {"measurement": "Cardiovascular effects", "setting": "conscious dog", "value": "slight hypertensive effects associated with tachycardia"},
      {"measurement": "Concentrations for inhibition of MAO-B specific binding relative to MAO-A", "setting": "MAO-B; rat cerebral membranes, [3H]Ro 19-6327 15 nM", "value": "two orders of magnitude higher"},
      {"measurement": "inhibition at 10 µM", "setting": "MAO-B; read-out: 10 μM CR4056 (% effect), inhibition of specific binding", "value": 35, "unit": "%"},
      {"measurement": "inhibition at 10 µM", "setting": "I1", "value": 23, "unit": "%"},
      {"measurement": "Activity in enzyme characterization panel", "setting": "PI 3-Kδ", "value": "inactive"},
      {"measurement": "IC50", "setting": "MAO-A", "value": "358 ± 12", "unit": "nM"},
      {"measurement": "inhibition at 10 µM", "setting": "MAO-A; read-out: 10 μM CR4056 (% effect), inhibition of specific binding, 10 μM, [3H]Ro 41-1049, cerebral cortex/rat", "value": "> 90", "unit": "%"},
      {"measurement": "Performance in rotarod test", "setting": "[1]", "value": "did not cause a deterioration"},
      {"measurement": "inhibition at 10 µM", "setting": "[2]", "value": 19, "unit": "%"},
      {"measurement": "10 μM CR4056 (% effect), inhibition of specific binding", "setting": "BDZ (central)", "value": 21, "unit": "%"},
      {"measurement": "inhibition at 10 µM", "setting": "D1", "value": 19, "unit": "%"},
      {"measurement": "Respiratory effects", "setting": "conscious rat", "value": "tachypnea associated with a respiratory stimulant effect"},
      {"measurement": "Effect on NE levels, plasma", "setting": "[3]; oral 20 mg/kg", "value": "No effect"},
      {"measurement": "Effect on NE levels, lumbar spinal cord", "setting": "[3]; single oral dose 20 mg/kg, two hours after dosing", "value": "not statistically significant"},
      {"measurement": "Increase of endogenous NE levels, parieto-occipital cortex", "setting": "[3]; single oral dose 20 mg/kg, two hours after dosing, versus vehicle", "value": "68.2% ± 14.1%"},
      {"measurement": "Increase of NE levels, cerebral cortex", "setting": "[3]; [6]", "value": "63.1% ±4.2%"},
      {"measurement": "Increase of NE levels, lumbar spinal cord", "setting": "[3]; [6]", "value": "51.3% ± 6.7%"},
      {"measurement": "Activity in enzyme characterization panel", "setting": "human mTOR kinase", "value": "inactive"},
      {"measurement": "Activity in enzyme characterization panel", "setting": "[4]", "value": "inactive"},
      {"measurement": "10 μM CR4056 (% effect), inhibition of specific binding", "setting": "I2", "value": 66, "unit": "%"},
      {"measurement": "Activity in enzyme characterization panel", "setting": "[5]", "value": "inactive"},
      {"measurement": "inhibition at 10 µM", "setting": "5-HT3", "value": 28, "unit": "%"},
      {"measurement": "Activity in enzyme characterization panel", "setting": "cycooxygenase-2 (COX2)", "value": "inactive"},
      {"measurement": "Activity in enzyme characterization panel", "setting": "PI 3-Kβ", "value": "inactive"},
      {"measurement": "IC50", "setting": "human recombinant MAO-B", "value": "> 10000", "unit": "nM"},
      {"measurement": "Times less active as inhibitor of MAO-B activity than of MAO-A", "setting": "human recombinant MAO-B; human recombinant enzymes", "value": "about 100 times"}
    ]}
  ]
}
